Patent US12162890B2 (Novartis AG, priority 2015, dated 2024)

target: HEK293 cells with stable expression of the GRIN1 gene and tetracycline-inducible expression of the GRIN2B gene (NMDA receptor, NR2B) (Homo sapiens, UniProt Q13224); experiment: Fluo-8 Ca2+ flux assay: reversal of Ro 25-6981-mediated suppression of the Ca2+ response to co-agonist (glutamate/glycine); format: cell-based; conditions: reversal of the Ro 25-6981 suppression of the Ca2+ response to co-agonist (glutamate/glycine); also: test concentration or dose not given here
Sequence (Q13224 27-1484, other chains not shown): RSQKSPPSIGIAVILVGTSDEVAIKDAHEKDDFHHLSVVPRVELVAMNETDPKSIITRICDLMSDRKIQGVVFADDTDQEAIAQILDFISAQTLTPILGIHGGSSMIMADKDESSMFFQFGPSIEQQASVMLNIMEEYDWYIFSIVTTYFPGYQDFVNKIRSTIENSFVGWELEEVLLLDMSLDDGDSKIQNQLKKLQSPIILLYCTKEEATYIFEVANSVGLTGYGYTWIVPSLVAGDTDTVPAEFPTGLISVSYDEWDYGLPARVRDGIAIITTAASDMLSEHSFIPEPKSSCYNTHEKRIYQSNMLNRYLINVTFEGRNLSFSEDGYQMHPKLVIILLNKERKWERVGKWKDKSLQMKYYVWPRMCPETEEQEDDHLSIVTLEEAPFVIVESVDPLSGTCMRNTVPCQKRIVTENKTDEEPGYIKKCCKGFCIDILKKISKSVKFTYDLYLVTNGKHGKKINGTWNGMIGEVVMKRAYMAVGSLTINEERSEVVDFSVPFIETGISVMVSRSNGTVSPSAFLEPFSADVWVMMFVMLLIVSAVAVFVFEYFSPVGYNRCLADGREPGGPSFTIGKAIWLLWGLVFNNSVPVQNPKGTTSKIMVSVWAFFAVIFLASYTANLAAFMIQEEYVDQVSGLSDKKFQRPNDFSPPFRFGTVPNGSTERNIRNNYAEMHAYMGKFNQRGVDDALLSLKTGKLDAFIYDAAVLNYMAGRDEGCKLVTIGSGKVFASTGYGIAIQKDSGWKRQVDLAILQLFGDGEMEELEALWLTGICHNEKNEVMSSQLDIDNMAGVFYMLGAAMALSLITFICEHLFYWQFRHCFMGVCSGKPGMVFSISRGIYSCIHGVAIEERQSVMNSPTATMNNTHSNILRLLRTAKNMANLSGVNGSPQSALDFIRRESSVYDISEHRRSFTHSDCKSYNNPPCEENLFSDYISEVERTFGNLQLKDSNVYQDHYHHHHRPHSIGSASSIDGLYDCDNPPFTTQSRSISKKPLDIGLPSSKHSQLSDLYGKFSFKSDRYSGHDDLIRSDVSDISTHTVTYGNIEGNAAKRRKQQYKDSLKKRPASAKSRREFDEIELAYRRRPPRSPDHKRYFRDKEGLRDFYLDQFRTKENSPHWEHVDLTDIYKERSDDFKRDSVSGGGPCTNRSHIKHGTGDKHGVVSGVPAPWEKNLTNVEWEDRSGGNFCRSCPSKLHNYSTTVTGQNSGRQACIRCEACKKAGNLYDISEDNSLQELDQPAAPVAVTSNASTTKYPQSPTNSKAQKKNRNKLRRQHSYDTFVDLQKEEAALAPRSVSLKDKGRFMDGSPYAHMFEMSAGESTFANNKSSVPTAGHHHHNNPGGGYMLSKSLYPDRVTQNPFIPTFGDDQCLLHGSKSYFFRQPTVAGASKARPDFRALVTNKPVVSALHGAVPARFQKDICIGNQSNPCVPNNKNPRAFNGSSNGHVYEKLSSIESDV

Compound	Response Recovered (%)
O=C(Cn1cnc2[nH]cc(-c3ccc(Cl)cc3)c2c1=O)N1CC(F)(F)C1 [Example 154, 5-(4-chlorophenyl)-3-(2-(3,3-difluoroazetidin-1-yl)-2-oxoethyl)-3H-pyrrolo[2,3-d]pyrimidin-4(7H)-one]	36
Cn1cc(-c2ccc(Cl)cc2)c2c(=O)n(CC(=O)N3CC(F)(F)C3)cnc21 [Example 155, 5-(4-chlorophenyl)-3-(2-(3,3-difluoroazetidin-1-yl)-2-oxoethyl)-7-methyl-3H-pyrrolo[2,3-d]pyrimidin-4(7H)-one]	24
CCn1cc(-c2ccc(Cl)c(C(F)(F)F)c2)c2c(=O)n(CC(=O)N3CCCC3)cnc21 [Example 157, 5-(4-chloro-3-(trifluoromethyl)phenyl)-7-ethyl-3-(2-oxo-2-(pyrrolidin-1-yl)ethyl)-3H-pyrrolo[2,3-d]pyrimidin-4(7H)-one]	70
Cn1cc(-c2ccc(F)c(Cl)c2)c2c(=O)n(CC(=O)N3CCCC3)cnc21 [Example 159, 5-(3-chloro-4-fluorophenyl)-7-methyl-3-(2-oxo-2-(pyrrolidin-1-yl)ethyl)-3H-pyrrolo[2,3-d]pyrimidin-4(7H)-one]	25
CCn1cc(-c2ccc(F)c(Cl)c2)c2c(=O)n(CC(=O)N3CCCC3)cnc21 [Example 160, 5-(3-chloro-4-fluorophenyl)-7-ethyl-3-(2-oxo-2-(pyrrolidin-1-yl)ethyl)-3H-pyrrolo[2,3-d]pyrimidin-4(7H)-one]	42
Cn1cc(-c2ccc(F)c(Cl)c2)c2c(=O)n(CC(=O)N3CC(F)(F)C3)cnc21 [Example 162, 5-(3-chloro-4-fluorophenyl)-3-(2-(3,3-difluoroazetidin-1-yl)-2-oxoethyl)-7-methyl-3H-pyrrolo[2,3-d]pyrimidin-4(7H)-one]	40
CCn1cc(-c2ccc(F)c(Cl)c2)c2c(=O)n(CC(=O)N3CC(F)(F)C3)cnc21 [Example 163, 5-(3-chloro-4-fluorophenyl)-3-(2-(3,3-difluoroazetidin-1-yl)-2-oxoethyl)-7-ethyl-3H-pyrrolo[2,3-d]pyrimidin-4(7H)-one]	48
Cn1cc(-c2ccc(Cl)c(F)c2)c2c(=O)n(CC(=O)N3CCCC3)cnc21 [Example 165, 5-(4-chloro-3-fluorophenyl)-7-methyl-3-(2-oxo-2-(pyrrolidin-1-yl)ethyl)-3H-pyrrolo[2,3-d]pyrimidin-4(7H)-one]	25
Cn1cc(-c2ccc(Cl)c(F)c2)c2c(=O)n(CC(=O)N3CC(F)(F)C3)cnc21 [Example 170, 5-(4-chloro-3-fluorophenyl)-3-(2-(3,3-difluoroazetidin-1-yl)-2-oxoethyl)-7-methyl-3H-pyrrolo[2,3-d]pyrimidin-4(7H)-one]	18
CCn1cc(-c2ccc(Cl)c(F)c2)c2c(=O)n(CC(=O)N3CC(F)(F)C3)cnc21 [Example 171, 5-(4-chloro-3-fluorophenyl)-3-(2-(3,3-difluoroazetidin-1-yl)-2-oxoethyl)-7-ethyl-3H-pyrrolo[2,3-d]pyrimidin-4(7H)-one]	15
O=C(Cn1cnc2c(c(-c3ccc(F)c(Cl)c3)cn2CCF)c1=O)N1CCCC1 [Example 172]	40
O=C(Cn1cnc2c(c(-c3ccc(Cl)c(F)c3)cn2CCF)c1=O)N1CCCC1 [Example 173, 5-(4-chloro-3-fluorophenyl)-7-(2-fluoroethyl)-3-(2-oxo-2-(pyrrolidin-1-yl)ethyl)-3H-pyrrolo[2,3-d]pyrimidin-4(7H)-one]	32
O=C(Cn1cnc2[nH]cc(-c3cnc(Cl)c(Cl)c3)c2c1=O)N1CCC(F)C1 (stereo not drawn) [Example 180, 5-(5,6-dichloropyridin-3-yl)-3-(2-(3-fluoropyrrolidin-1-yl)-2-oxoethyl)-3H-pyrrolo[2,3-d]pyrimidin-4(7H)-one]	15
CCn1cc(-c2ccc(F)c(C(F)(F)F)c2)c2c(=O)n(CC(=O)N3CCC(F)C3)cnc21 (stereo not drawn) [Example 184]	66
COCCn1cc(-c2ccc(Cl)c(C(F)(F)F)c2)c2c(=O)n(CC(=O)N3CCCC3)cnc21 [Example 185, 5-(4-chloro-3-(trifluoromethyl)phenyl)-7-(2-methoxyethyl)-3-(2-oxo-2-(pyrrolidin-1-yl)ethyl)-3H-pyrrolo[2,3-d]pyrimidin-4(7H)-one]	76
COCCn1cc(-c2ccc(F)c(Cl)c2)c2c(=O)n(CC(=O)N3CCCC3)cnc21 [Example 186, 5-(3-chloro-4-fluorophenyl)-7-(2-methoxyethyl)-3-(2-oxo-2-(pyrrolidin-1-yl)ethyl)-3H-pyrrolo[2,3-d]pyrimidin-4(7H)-one]	18

More lines, now with the values ahead:

Response Recovered (%)	Compound
36	O=C(Cn1cnc2[nH]cc(-c3ccc(F)c(Cl)c3)c2c1=O)N1CCCC1 [Example 156, 5-(3-chloro-4-fluorophenyl)-3-(2-oxo-2-(pyrrolidin-1-yl)ethyl)-3H-pyrrolo[2,3-d]pyrimidin-4(7H)-one]
72	Cn1cc(-c2ccc(Cl)c(C(F)(F)F)c2)c2c(=O)n(CC(=O)N3CCCC3)cnc21 [Example 158, 5-(4-chloro-3-(trifluoromethyl)phenyl)-7-methyl-3-(2-oxo-2-(pyrrolidin-1-yl)ethyl)-3H-pyrrolo[2,3-d]pyrimidin-4(7H)-one]
58	O=C(Cn1cnc2[nH]cc(-c3ccc(F)c(Cl)c3)c2c1=O)N1CC(F)(F)C1 [Example 161, 5-(3-chloro-4-fluorophenyl)-3-(2-(3,3-difluoroazetidin-1-yl)-2-oxoethyl)-3H-pyrrolo[2,3-d]pyrimidin-4(7H)-onepyrrolo[2,3-d]pyrimidin-4(7H)-one]
48	O=C(Cn1cnc2[nH]cc(-c3ccc(Cl)c(F)c3)c2c1=O)N1CCCC1 [Example 164, 5-(4-chloro-3-fluorophenyl)-3-(2-oxo-2-(pyrrolidin-1-yl)ethyl)-3H-pyrrolo[2,3-d]pyrimidin-4(7H)-one]
65	O=C(Cn1cnc2[nH]cc(-c3ccc(Cl)c(C(F)(F)F)c3)c2c1=O)N1CC(F)(F)C1 [Example 166, 5-(4-chloro-3-(trifluoromethyl)phenyl)-3-(2-(3,3-difluoroazetidin-1-yl)-2-oxoethyl)-3H-pyrrolo[2,3-d]pyrimidin-4(7H)-one]
35	O=C(Cn1cnc2[nH]cc(-c3ccc(Cl)c(F)c3)c2c1=O)N1CC(F)(F)C1 [Example 167, 5-(4-chloro-3-fluorophenyl)-3-(2-(3,3-difluoroazetidin-1-yl)-2-oxoethyl)-3H-pyrrolo[2,3-d]pyrimidin-4(7H)-one]
55	Cn1cc(-c2ccc(Cl)c(C(F)(F)F)c2)c2c(=O)n(CC(=O)N3CC(F)(F)C3)cnc21 [Example 168, 5-(4-chloro-3-(trifluoromethyl)phenyl)-3-(2-(3,3-difluoroazetidin-1-yl)-2-oxoethyl)-7-methyl-3H-pyrrolo[2,3-d]pyrimidin-4(7H)-one]
57	CCn1cc(-c2ccc(Cl)c(C(F)(F)F)c2)c2c(=O)n(CC(=O)N3CC(F)(F)C3)cnc21 [Example 169]
91	O=C(Cn1cnc2[nH]cc(-c3ccc(F)c(C(F)(F)F)c3)c2c1=O)N1CCC(F)C1 (stereo not drawn) [Example 174, 5-(4-fluoro-3-(trifluoromethyl)phenyl)-3-(2-(3-fluoropyrrolidin-1-yl)-2-oxoethyl)-3H-pyrrolo[2,3-d]pyrimidin-4(7H)-one]
77	O=C(Cn1cnc2[nH]cc(-c3ccc(Cl)c(Cl)c3)c2c1=O)N1CCC(F)C1 (stereo not drawn) [Example 175, 5-(3,4-dichlorophenyl)-3-(2-(3-fluoropyrrolidin-1-yl)-2-oxoethyl)-3H-pyrrolo[2,3-d]pyrimidin-4(7H)-one]
63	O=C(Cn1cnc2[nH]cc(-c3ccc(C(F)(F)F)c(Cl)c3)c2c1=O)N1CCC(F)C1 (stereo not drawn) [Example 176, 5-(3-chloro-4-(trifluoromethyl)phenyl)-3-(2-(3-fluoropyrrolidin-1-yl)-2-oxoethyl)-3H-pyrrolo[2,3-d]pyrimidin-4(7H)-one]
85	O=C(Cn1cnc2[nH]cc(-c3ccc(Cl)c(C(F)(F)F)c3)c2c1=O)N1CCC(F)C1 (stereo not drawn) [Example 177, 5-(4-chloro-3-(trifluoromethyl)phenyl)-3-(2-(3-fluoropyrrolidin-1-yl)-2-oxoethyl)-3H-pyrrolo[2,3-d]pyrimidin-4(7H)-one]
54	O=C(Cn1cnc2[nH]cc(-c3ccc(F)c(Cl)c3)c2c1=O)N1CCC(F)C1 (stereo not drawn) [Example 178, 5-(3-chloro-4-fluorophenyl)-3-(2-(3-fluoropyrrolidin-1-yl)-2-oxoethyl)-3H-pyrrolo[2,3-d]pyrimidin-4(7H)-one]
37	O=C(Cn1cnc2[nH]cc(-c3ccc(Cl)c(F)c3)c2c1=O)N1CCC(F)C1 (stereo not drawn) [Example 179, 5-(4-Chloro-3-fluoro-phenyl)-3-[2-(3-fluoro-pyrrolidin-1-yl)-2-oxo-ethyl]-3,7-dihydro-pyrrolo[2,3-d]pyrimidin-4-one]
69	O=C(Cn1cnc2[nH]cc(-c3ccc(Cl)c(C(F)(F)F)c3)c2c1=O)N1C[C@@H](F)[C@@H](F)C1 [Example 181]
18	O=C(Cn1cnc2[nH]cc(-c3cnc(Cl)c(C(F)(F)F)c3)c2c1=O)N1CC(F)(F)C1 [Example 182, 5-(6-chloro-5-(trifluoromethyl)pyridin-3-yl)-3-(2-(3,3-difluoroazetidin-1-yl)-2-oxoethyl)-3H-pyrrolo[2,3-d]pyrimidin-4(7H)-one]
14	O=C(Cn1cnc2[nH]cc(-c3cnc(Cl)c(C(F)(F)F)c3)c2c1=O)N1CCC(F)C1 (stereo not drawn) [Example 183, 5-(6-chloro-5-(trifluoromethyl)pyridin-3-yl)-3-(2-(3-fluoropyrrolidin-1-yl)-2-oxoethyl)-3H-pyrrolo[2,3-d]pyrimidin-4(7H)-one]
